Measured values as given in ChEMBL document CHEMBL1201862, “PubChem BioAssay data set” (2004).
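Method: 48-hour compound exposure of cells in 96-well plates, five concentrations, linear interpolation of endpoints. GI50 is the concentration that inhibits growth by half.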 Active and inactive are the calls of the source. Rule as the data show it: active = GI50 up to about 1.1 µM and inactive = higher.

What was measured:
Experiment in all cases: NCI anticancer screen, dose series, 48 h
MDA-MB-231 = test system: MDA-MB-231
SK-MEL-2 = test system: SK-MEL-2
NCI/ADR-RES = test system: NCI/ADR-RES
BT-549 = test system: BT-549
SF-295 = test system: SF-295
SNB-75 = test system: SNB-75
SN12C = test system: SN12C
NCI-H522 = test system: NCI-H522
OVCAR-3 = test system: OVCAR-3
DU-145 = test system: DU-145
T47D = test system: T47D
MDA-MB-435 = test system: MDA-MB-435
UACC-257 = test system: UACC-257
HL-60 = test system: HL-60
LOX IMVI = test system: LOX IMVI

SMILES | GI50 (MDA-MB-231) | GI50 (SK-MEL-2) | GI50 (NCI/ADR-RES) | GI50 (BT-549) | GI50 (SF-295) | GI50 (SNB-75) | GI50 (SN12C) | GI50 (NCI-H522) | GI50 (OVCAR-3) | GI50 (DU-145) | GI50 (T47D) | GI50 (MDA-MB-435) | GI50 (UACC-257) | GI50 (HL-60) | GI50 (LOX IMVI)
C1OCN2c3nonc3N3COCN4c5nonc5N1C2C43 (configuration not stated) | > 100 µM (inactive) | > 100 µM (inactive) | > 100 µM (inactive) | > 100 µM (inactive) | > 100 µM (inactive) | > 100 µM (inactive) | > 100 µM (inactive) | > 100 µM (inactive) | > 100 µM (inactive) | > 100 µM (inactive) | > 100 µM (inactive) | > 100 µM (inactive) | > 100 µM (inactive) | 83.4 µM (inactive) | 
O=[N+]([O-])c1ccc(N/N=C(\c2ccccc2)c2ccccn2)nc1 | 1 µM (active) | 14.8 µM (inactive) | 0.658 µM (active) | 15.5 µM (inactive) | 5.32 µM (inactive) | 7.06 µM (inactive) | 0.429 µM (active) | 0.0794 µM (active) | 0.409 µM (active) | 5.53 µM (inactive) | 0.0107 µM (active) | 7.41 µM (inactive) | 0.262 µM (active) | < 0.01 µM (active) | 
CC(C)(C)c1ccc2c(c1)CNCCNCc1cc(C(C)(C)C)ccc1OCC1(CO2)COc2ccc(C(C)(C)C)cc2CNCCNCc2cc(C(C)(C)C)ccc2OC1 | 0.394 µM (active) | 1.51 µM (inactive) | 1.63 µM (inactive) | 1.71 µM (inactive) | 0.968 µM (active) | 1.51 µM (inactive) | 0.404 µM (active) | 0.284 µM (active) | 1.61 µM (inactive) | 1.73 µM (inactive) | 1.91 µM (inactive) | 0.271 µM (active) | 1.54 µM (inactive) | 0.179 µM (active) | 0.243 µM (active)
CCN(CC)CCNc1c(OC)cc(C)c2sc3ccccc3c(=O)c12 | 2.74 µM (inactive) | 12.6 µM (inactive) | 5.27 µM (inactive) | 11.7 µM (inactive) | 3.85 µM (inactive) | 12.9 µM (inactive) | 2.79 µM (inactive) | 5.33 µM (inactive) | 11.8 µM (inactive) | 11.9 µM (inactive) | 11.4 µM (inactive) | 3.08 µM (inactive) | 1.82 µM (inactive) | 5.45 µM (inactive) | 
NNC(=O)c1ccccc1NC(=O)/C(=C/c1ccccc1)NC(=O)c1ccccc1 | 47.9 µM (inactive) | > 100 µM (inactive) | 56.8 µM (inactive) | 60.4 µM (inactive) | > 100 µM (inactive) | 70.1 µM (inactive) | > 100 µM (inactive) | > 100 µM (inactive) | > 100 µM (inactive) | > 100 µM (inactive) | > 100 µM (inactive) | 54.3 µM (inactive) | 71.6 µM (inactive) | 76.9 µM (inactive) | 68.1 µM (inactive)
COc1c(C)c(OC)c2c(c1O)[C@@H]1[C@@H]3Cc4c(OC)c(C)c(OC)c(O)c4[C@H](CNC(=O)c4ccc5ccccc5n4)N3[C@@H](C#N)[C@H](C2)N1C | 0.00159 µM (active) | 0.000296 µM (active) | 0.0101 µM (active) | 0.000377 µM (active) | 0.0018 µM (active) | 0.00262 µM (active) | 0.00103 µM (active) | 0.000144 µM (active) | 0.000235 µM (active) | 0.00206 µM (active) | 0.000277 µM (active) | 0.00116 µM (active) | 0.00206 µM (active) | 0.000363 µM (active) | 0.00026 µM (active)
CNC(=S)Nc1ccc(OC)c2ccccc12 | > 10 µM (inactive) |  | > 10 µM (inactive) | > 10 µM (inactive) | 2.04 µM (inactive) | 4.43 µM (inactive) | > 10 µM (inactive) | > 10 µM (inactive) | 2.88 µM (inactive) | > 10 µM (inactive) | > 10 µM (inactive) | > 10 µM (inactive) | > 10 µM (inactive) | > 10 µM (inactive) | > 10 µM (inactive)
O=C1CCCC/C1=C\c1ccc(Br)cc1 | 16.8 µM (inactive) | 22.6 µM (inactive) | 3.73 µM (inactive) | 14.5 µM (inactive) | 21.1 µM (inactive) | 16 µM (inactive) | 17.6 µM (inactive) | 14.8 µM (inactive) | 20.7 µM (inactive) | 40 µM (inactive) | 23.3 µM (inactive) | 15.8 µM (inactive) | 26.8 µM (inactive) | 2.4 µM (inactive) | 39.6 µM (inactive)
Cc1cccc(-n2c(C)nc3ccc(NC4OC(CO)C(O)C(O)C4O)cc3c2=O)c1 (configuration not stated) | > 100 µM (inactive) | 61 µM (inactive) | > 100 µM (inactive) | > 100 µM (inactive) | > 100 µM (inactive) | > 100 µM (inactive) | > 100 µM (inactive) | > 100 µM (inactive) | > 100 µM (inactive) | > 100 µM (inactive) | > 100 µM (inactive) | > 100 µM (inactive) | > 100 µM (inactive) | > 100 µM (inactive) | > 100 µM (inactive)
COC(=O)c1cc(C)n2c1CS[C@@H]2c1ccccc1 | 57.4 µM (inactive) | 28.4 µM (inactive) | 25.1 µM (inactive) | 29.2 µM (inactive) | 30.7 µM (inactive) | 16.5 µM (inactive) | 37.2 µM (inactive) | 23.2 µM (inactive) | 32.4 µM (inactive) | 82 µM (inactive) | 21.5 µM (inactive) | 19.1 µM (inactive) | 47.9 µM (inactive) | 26.2 µM (inactive) | 40.1 µM (inactive)
O=C1C=C(OCCCCl)C(=O)c2c(O)ccc(O)c21 | 1.74 µM (inactive) | 1.02 µM (active) | 2.65 µM (inactive) | 1.09 µM (active) | 0.82 µM (active) | 1.4 µM (inactive) | 0.35 µM (active) | 2.36 µM (inactive) | 0.505 µM (active) | 0.303 µM (active) | 2.19 µM (inactive) | 0.206 µM (active) | 0.176 µM (active) | 0.792 µM (active) | 0.256 µM (active)
CO[C@]12C[C@@H](CNC(=O)c3cc(Br)c[nH]3)O[C@H]1NC(=O)N2 | > 100 µM (inactive) | > 100 µM (inactive) | > 100 µM (inactive) | > 100 µM (inactive) | > 100 µM (inactive) | > 100 µM (inactive) | > 100 µM (inactive) | > 100 µM (inactive) | > 100 µM (inactive) | > 100 µM (inactive) | > 100 µM (inactive) | > 100 µM (inactive) | > 100 µM (inactive) | > 100 µM (inactive) | 
C/C(Cl)=N/OC(=O)Nc1ccc(S(N)(=O)=O)c(C)c1 | 8.26 µM (inactive) | 18.6 µM (inactive) | 14.1 µM (inactive) | 12.3 µM (inactive) | 21 µM (inactive) | 19 µM (inactive) | 13.4 µM (inactive) | 1.45 µM (inactive) | 4.46 µM (inactive) | 16.6 µM (inactive) | 2.92 µM (inactive) | 15.1 µM (inactive) | 14.7 µM (inactive) | 1.42 µM (inactive) | 2.27 µM (inactive)
C[C@@H]1C[C@](O)([C@@H](C)Cl)C(=O)O[C@@H]2CCN3CC=C(COC(=O)[C@]1(C)O)[C@H]23 | > 100 µM (inactive) | > 100 µM (inactive) | > 100 µM (inactive) | > 100 µM (inactive) | > 100 µM (inactive) | > 100 µM (inactive) |  | > 100 µM (inactive) | > 100 µM (inactive) | > 100 µM (inactive) | > 100 µM (inactive) | > 100 µM (inactive) | > 100 µM (inactive) | > 100 µM (inactive) | > 100 µM (inactive)
COc1nc(N)nc2c1ncn2C1CC(O)C(CO)O1 (configuration not stated) | > 100 µM (inactive) | > 100 µM (inactive) | > 100 µM (inactive) | > 100 µM (inactive) | > 100 µM (inactive) | > 100 µM (inactive) | > 100 µM (inactive) | > 100 µM (inactive) | > 100 µM (inactive) | > 100 µM (inactive) | > 100 µM (inactive) | > 100 µM (inactive) | > 100 µM (inactive) | > 100 µM (inactive) | > 100 µM (inactive)
COc1cccc(-c2ccc3c4c2O[C@H]2c5[nH]c6ccccc6c5C[C@@]5(O)[C@@H](C3)N(CC3CC3)CC[C@]425)c1 | 0.14 µM (active) | 1.69 µM (inactive) | 2.07 µM (inactive) | 4.83 µM (inactive) | 1.71 µM (inactive) |  | 1.67 µM (inactive) | 1.15 µM (inactive) | 1.9 µM (inactive) | 2.54 µM (inactive) | 2.1 µM (inactive) | 1.77 µM (inactive) | 1.74 µM (inactive) | 1.38 µM (inactive) | 1.72 µM (inactive)
C[C@H](CCC(=O)NCCS(=O)(=O)O)[C@H]1CC[C@H]2[C@@H]3[C@H](O)C[C@@H]4C[C@H](O)CC[C@]4(C)[C@H]3CC[C@]12C | > 100 µM (inactive) | > 100 µM (inactive) | 45.9 µM (inactive) | > 100 µM (inactive) | > 100 µM (inactive) |  | > 100 µM (inactive) | > 100 µM (inactive) | > 100 µM (inactive) | > 100 µM (inactive) | > 100 µM (inactive) | > 100 µM (inactive) | > 100 µM (inactive) | > 100 µM (inactive) | > 100 µM (inactive)
c1ccc(-c2nc(-c3ccccc3)c(-c3ccccc3)[nH]2)cc1 | > 72.6 µM (inactive) | > 100 µM (inactive) | 60.3 µM (inactive) | > 100 µM (inactive) | > 100 µM (inactive) | 75 µM (inactive) | > 87.5 µM (inactive) | > 82.6 µM (inactive) | > 100 µM (inactive) | > 100 µM (inactive) | 42.3 µM (inactive) | > 100 µM (inactive) | > 85.5 µM (inactive) | 18.1 µM (inactive) | > 100 µM (inactive)
